Results taken from patent publication US12702307B2, “Non-invasive stress imaging methods of diagnosing peripheral arterial disease via dynamic pet” (Jubilant DraxImage inc., priority 2021, dated 2026).

Columns and labels:
[1] = test system: occluded tissue / low limb; experiment: Dynamic Rb-82 PET, tracer flux K1 in lower extremity, human study; type: in vivo; settings: for average K1 value: diabetic subject, 3D region of interest on the low limb, parametric imaging
Description: CT scan was performed on the subject for standard attenuation correction, multi-energy low dose contrast CT imaging was performed to define lower extremity vasculature and attenuation correction was performed using virtual non-contrast images; 518±37 MBq Rb-82 is administered to the subject using automated generation and infusion system agent; single bed PET acquisition of the heart for about 2-7 minutes is performed; single bed centered PET acquisition at abdominal aorta of the subject for about 1-3 minutes is performed; continuous bed motion PET scan of the subject between abdominal aorta and legs is performed; input function was calculated from abdominal artery; Tracer flux (K1) into the tissue or region of interest is calculated as volume per unit time per unit volume of tissue. […] FIG. 5 represents the image acquisition protocol during human study. FIG. 7 represents the muscle volumes in human studies.

[2] = test system: calf muscles, hindlimb ischemia (HLI); experiment: Rb-82 PET/CT of calf muscles in rabbit hindlimb ischemia at rest and cuff-induced hyperemia; type: in vivo, rabbits; settings: for SMP SUV: cuff-induced hyperemia (CIH); for Mean Rb-82 SUV: rest, 1.5 mCi
Description: Methods: Hindlimb ischemia (HLI) was created in rabbits (n=8) by right femoral ligations and Rb-82 PET/CT imaging performed on digital PET scanner (Vision600, Siemens) at either 2 or 4 weeks post-ligation. Rabbits were injected with Rb-82 (1.5 mCi) with constant activity infusion over 30 seconds at rest and 30 seconds following hyperemia induced by 3 minutes cuff occlusion of thighs bilaterally. PET images were acquired with shuttling scanner from heart to feet using 8 passes over 7 minutes. Summed images were created excluding the first 90 seconds post injection. Calf muscles were segmented based on CT images. Mean Rb-82 standardized uptake values (SUVs) were calculated for calf muscles—gastrocnemius (GC), plantaris (PLA), soleus (SOL), tibialis anterior (TA), extensor digitorum longus (EDL), peroneus (PER)—for both ischemic (I) and non-ischemic (NI) limbs. CT angiography was performed, and tissues analyzed for fiber type and capillary density.

[3] = test system: occluded tissue (lower extremity); experiment: Dynamic Rb-82 PET, tracer flux K1 in lower extremity, animal study; type: in vivo, porcine pigs; settings: occluded tissue in comparison to non-occluded tissue; 518±37 MBq Rb-82
Description: CT scan was performed on the subject for standard attenuation correction, and multi-energy low dose contrast CT imaging was performed to define the lower extremity vasculature and attenuation correction was performed using virtual non-contrast images; 518±37 MBq Rb-82 was administered to the subject using automated generation and infusion system; single bed PET acquisition of the heart for about 1-10 minutes, was performed; single bed PET acquisition of the leg for about 1-10 minutes was performed; single bed centered PET acquisition at abdominal aorta of the subject for about 1-3 minutes was performed; continuous bed motion PET scan of the subject between abdominal aorta and legs was performed; tracer flux (K1) into the tissue or region of interest is calculated as volume per unit time per unit volume of tissue. […] It was validated by injecting microspheres over 30 seconds during the PET imaging at either rest or stress conditions for each animal and blood flow was measured in both gastrocnemius and soleus muscles. FIG. 4 represents the sample animal K1 parametric image with AA as the input function. FIG. 6 represents the muscle volumes in animal studies.

calf muscles = experiment: Rb PET/CT calf muscle perfusion at rest and reactive hyperemia in controls and PAD patients; type: in vivo, human
Description: Methods: Rb PET/CT imaging (Vision600, Siemens) was performed in healthy controls (n=6) and PAD patients (n=6). Rb (20-30 mCi) was delivered using a constant activity infusion over […], with PET images acquired by shuttling scanner from either heart (Protocol 1) or abdomen (Protocol 2) to feet using 8-11 passes over 7 minutes. Abdominal protocol was repeated 30 seconds after RH induced by 5 minutes bilateral thigh cuff occlusion. Mean Rb standardized uptake values (SUV), excluding the input function, were determined for calf muscles segmented in both legs using hybrid CT images including: gastrocnemius (GC), soleus (SOL), tibialis anterior (TA), extensor digitorum longus (EDL), and peroneus (PER) (FIG. 10A).

| average K1 value [1] | SMP SUV ([2]; ischemic (I) limb) | SMP SUV ([2]; non-ischemic (NI) limb) | Mean Rb-82 SUV ([2]; ischemic (I) limb across calf muscles) | Mean Rb-82 SUV ([2]; non-ischemic (NI) limb across calf muscles) | Average K1 (tracer flux) [3] | Mean Rb SUV (calf muscles; reactive hyperemia (RH), PAD patients, gastrocnemius (GC)) | Mean Rb SUV (calf muscles; reactive hyperemia (RH), PAD patients, soleus (SOL)) | Mean Rb SUV (calf muscles; reactive hyperemia (RH), controls, gastrocnemius (GC)) | Mean Rb SUV (calf muscles; reactive hyperemia (RH), controls, soleus (SOL)) | Mean Rb SUV (calf muscles; rest, PAD subjects, gastrocnemius (GC)) | Mean Rb SUV (calf muscles; rest, PAD subjects, soleus (SOL)) | Mean Rb SUV (calf muscles; rest, controls, gastrocnemius (GC)) | Mean Rb SUV (calf muscles; rest, controls, soleus (SOL)) | Average K1 (tracer flux) ([1]; occluded tissue in comparison to non-occluded tissue, 518±37 MBq Rb-82) | Compound |
| --- | --- | --- | --- | --- | --- | --- | --- | --- | --- | --- | --- | --- | --- | --- | --- |
| 0.039 |  |  |  |  |  |  |  |  |  |  |  |  |  |  | [15OH2] [^15O-water] |
| 0.032 | 1.02±0.32 | 1.14±0.34 | 0.55±0.18 | 0.51±0.16 | less than 0.05 ml/min/cm^3 | 0.96±0.58 | 1.08±0.76 | 0.38±0.18 | 0.34±0.14 | 0.50±0.11 | 0.66±0.20 | 0.44±0.11 | 0.52±0.12 | less than 0.05 ml/min/cm^3 | Rb-82 chloride |
